Assay results published in PubChem BioAssay (NCI).
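Each compound was tested at five concentrations against cells in 96-well plates for 48 hours. At the TGI there is no net growth.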

Legend:
Assay in all cases: NCI anticancer screen, dose series, 48 h
HOP-62 NSCLC = tested on: HOP-62 NSCLC
OVCAR-3 ovarian = tested on: OVCAR-3 ovarian
A549 NSCLC = tested on: A549 NSCLC
HT29 colon = tested on: HT29 colon
LOX IMVI melanoma = tested on: LOX IMVI melanoma
UACC-257 melanoma = tested on: UACC-257 melanoma
A498 renal = tested on: A498 renal
SF-268 CNS = tested on: SF-268 CNS
SNB-19 CNS = tested on: SNB-19 CNS
RPMI-8226 leukemia = tested on: RPMI-8226 leukemia
NCI/ADR-RES ovarian = tested on: NCI/ADR-RES ovarian
OVCAR-4 ovarian = tested on: OVCAR-4 ovarian
NCI-H23 lung = tested on: NCI-H23 lung
MDA-N = tested on: MDA-N
SK-MEL-2 melanoma = tested on: SK-MEL-2 melanoma

CC(C)(C)OC(=O)CC(NC(=O)OC(C)(C)C)C(=O)Oc1ccc([N+](=O)[O-])cc1 (stereo not given)
TGI (HOP-62 NSCLC): > 100 µM | TGI (OVCAR-3 ovarian): > 100 µM | TGI (A549 NSCLC): > 100 µM | TGI (HT29 colon): > 100 µM | TGI (LOX IMVI melanoma): > 100 µM | TGI (UACC-257 melanoma): > 100 µM | TGI (A498 renal): > 100 µM | TGI (SF-268 CNS): > 100 µM | TGI (SNB-19 CNS): > 100 µM | TGI (RPMI-8226 leukemia): > 100 µM | TGI (NCI/ADR-RES ovarian): > 100 µM | TGI (OVCAR-4 ovarian): > 100 µM | TGI (NCI-H23 lung): > 100 µM | TGI (MDA-N): > 100 µM | TGI (SK-MEL-2 melanoma): > 100 µM

COC(=O)C(=O)C(C(=O)C(=O)Nc1nc(=S)[nH][nH]1)c1nc2ccc([N+](=O)[O-])cc2[nH]c1=O (stereo not given)
TGI (HOP-62 NSCLC): > 100 µM | TGI (OVCAR-3 ovarian): > 100 µM | TGI (A549 NSCLC): > 100 µM | TGI (HT29 colon): > 100 µM | TGI (LOX IMVI melanoma): > 100 µM | TGI (UACC-257 melanoma): > 100 µM | TGI (A498 renal): > 100 µM | TGI (SF-268 CNS): > 100 µM | TGI (SNB-19 CNS): > 100 µM | TGI (RPMI-8226 leukemia): > 100 µM | TGI (NCI/ADR-RES ovarian): > 100 µM | TGI (OVCAR-4 ovarian): > 100 µM | TGI (NCI-H23 lung): > 100 µM | TGI (MDA-N): > 100 µM | TGI (SK-MEL-2 melanoma): > 100 µM

CCOC(=O)c1c[nH]c2cc3c(cc2c1=O)CCS3
TGI (HOP-62 NSCLC): > 100 µM | TGI (OVCAR-3 ovarian): > 100 µM | TGI (A549 NSCLC): > 100 µM | TGI (HT29 colon): > 100 µM | TGI (LOX IMVI melanoma): > 100 µM | TGI (UACC-257 melanoma): > 100 µM | TGI (A498 renal): > 100 µM | TGI (SF-268 CNS): > 100 µM | TGI (SNB-19 CNS): > 100 µM | TGI (RPMI-8226 leukemia): > 100 µM | TGI (NCI/ADR-RES ovarian): > 100 µM | TGI (OVCAR-4 ovarian): > 100 µM | TGI (NCI-H23 lung): > 100 µM | TGI (MDA-N): > 100 µM | TGI (SK-MEL-2 melanoma): > 100 µM

O=C(N1CCN(c2ccccc2)CC1)N(C(=O)C1(c2ccc(Cl)cc2)CCCC1)S(=O)(=O)c1ccccc1
TGI (HOP-62 NSCLC): 88.6 µM | TGI (OVCAR-3 ovarian): 82.6 µM | TGI (A549 NSCLC): > 100 µM | TGI (HT29 colon): 75.8 µM | TGI (LOX IMVI melanoma): 37.9 µM | TGI (UACC-257 melanoma): 88.1 µM | TGI (A498 renal): 0.429 µM | TGI (SF-268 CNS): > 100 µM | TGI (SNB-19 CNS): 72.2 µM | TGI (RPMI-8226 leukemia): > 100 µM | TGI (NCI/ADR-RES ovarian): 70.8 µM | TGI (OVCAR-4 ovarian): 64.2 µM | TGI (NCI-H23 lung): 69.1 µM | TGI (MDA-N): 51.2 µM | TGI (SK-MEL-2 melanoma): 38.9 µM

CSc1nc(Cl)c2c(n1)Sc1nc3ccccc3n1N=C2
TGI (HOP-62 NSCLC): > 100 µM | TGI (OVCAR-3 ovarian): 75.8 µM | TGI (A549 NSCLC): > 100 µM | TGI (HT29 colon): 53.6 µM | TGI (LOX IMVI melanoma): 33.5 µM | TGI (UACC-257 melanoma): > 100 µM | TGI (A498 renal): > 100 µM | TGI (SF-268 CNS): > 100 µM | TGI (SNB-19 CNS): > 100 µM | TGI (RPMI-8226 leukemia): 60 µM | TGI (NCI/ADR-RES ovarian): 55.1 µM | TGI (OVCAR-4 ovarian): > 100 µM | TGI (NCI-H23 lung): > 100 µM | TGI (MDA-N): 59.9 µM | TGI (SK-MEL-2 melanoma): > 100 µM

NC(N)=N/N=C/c1c(-c2ccc(Cl)cc2)nc2n1CCS2
TGI (HOP-62 NSCLC): 27.4 µM | TGI (OVCAR-3 ovarian): 22.1 µM | TGI (A549 NSCLC): 22.2 µM | TGI (HT29 colon): 21.1 µM | TGI (LOX IMVI melanoma): 18 µM | TGI (UACC-257 melanoma): 28 µM | TGI (A498 renal): 26.4 µM | TGI (SF-268 CNS): 25.3 µM | TGI (SNB-19 CNS): 32.6 µM | TGI (RPMI-8226 leukemia): 26.9 µM | TGI (NCI/ADR-RES ovarian): 32.6 µM | TGI (OVCAR-4 ovarian): 28.6 µM | TGI (MDA-N): 23.3 µM | TGI (SK-MEL-2 melanoma): 24.2 µM

COC(=O)c1c(OC(C)=O)ccc2c1c1cc3ccccc3c(OC(C)=O)c1n2C
TGI (HOP-62 NSCLC): > 100 µM | TGI (OVCAR-3 ovarian): 62 µM | TGI (A549 NSCLC): > 100 µM | TGI (HT29 colon): 69.1 µM | TGI (A498 renal): 46 µM | TGI (SF-268 CNS): > 100 µM | TGI (SNB-19 CNS): > 100 µM | TGI (RPMI-8226 leukemia): > 100 µM | TGI (NCI/ADR-RES ovarian): > 100 µM | TGI (OVCAR-4 ovarian): > 100 µM | TGI (NCI-H23 lung): > 100 µM | TGI (MDA-N): > 100 µM | TGI (SK-MEL-2 melanoma): > 100 µM

CCOC(=O)/C=C1\C[C@H](NC(=O)OCc2ccccc2)C(=O)N1CC(=O)OCC
TGI (HOP-62 NSCLC): > 100 µM | TGI (OVCAR-3 ovarian): > 100 µM | TGI (A549 NSCLC): > 100 µM | TGI (HT29 colon): > 100 µM | TGI (UACC-257 melanoma): > 100 µM | TGI (A498 renal): > 100 µM | TGI (SF-268 CNS): > 100 µM | TGI (SNB-19 CNS): > 100 µM | TGI (RPMI-8226 leukemia): > 100 µM | TGI (NCI/ADR-RES ovarian): > 100 µM | TGI (OVCAR-4 ovarian): > 100 µM | TGI (NCI-H23 lung): > 100 µM | TGI (MDA-N): > 100 µM | TGI (SK-MEL-2 melanoma): > 100 µM

Cc1ccc(C)c(C(=N)c2ccccc2Cc2ccccc2)c1
TGI (HOP-62 NSCLC): 61.5 µM | TGI (OVCAR-3 ovarian): 27.2 µM | TGI (A549 NSCLC): > 100 µM | TGI (HT29 colon): 33.7 µM | TGI (LOX IMVI melanoma): 31.7 µM | TGI (UACC-257 melanoma): 73.1 µM | TGI (A498 renal): 53.9 µM | TGI (SF-268 CNS): 46.2 µM | TGI (SNB-19 CNS): > 100 µM | TGI (RPMI-8226 leukemia): 35.4 µM | TGI (NCI/ADR-RES ovarian): > 100 µM | TGI (OVCAR-4 ovarian): 85.8 µM | TGI (NCI-H23 lung): > 100 µM | TGI (MDA-N): 69.4 µM | TGI (SK-MEL-2 melanoma): 32 µM

CCCC(=O)Oc1cc(OC(=O)CCC)c2c(C)cc(=O)oc2c1
TGI (HOP-62 NSCLC): > 100 µM | TGI (OVCAR-3 ovarian): > 100 µM | TGI (A549 NSCLC): > 100 µM | TGI (HT29 colon): > 100 µM | TGI (LOX IMVI melanoma): > 100 µM | TGI (UACC-257 melanoma): > 100 µM | TGI (A498 renal): > 100 µM | TGI (SF-268 CNS): > 100 µM | TGI (SNB-19 CNS): > 100 µM | TGI (RPMI-8226 leukemia): > 100 µM | TGI (NCI/ADR-RES ovarian): > 100 µM | TGI (OVCAR-4 ovarian): > 100 µM | TGI (NCI-H23 lung): > 100 µM | TGI (MDA-N): > 100 µM | TGI (SK-MEL-2 melanoma): > 100 µM

COc1ccccc1NC1=NCC(C)S1 (stereo not given)
TGI (HOP-62 NSCLC): > 100 µM | TGI (OVCAR-3 ovarian): > 100 µM | TGI (A549 NSCLC): > 100 µM | TGI (HT29 colon): > 100 µM | TGI (LOX IMVI melanoma): > 100 µM | TGI (UACC-257 melanoma): > 100 µM | TGI (A498 renal): > 100 µM | TGI (SF-268 CNS): > 100 µM | TGI (SNB-19 CNS): > 100 µM | TGI (RPMI-8226 leukemia): > 100 µM | TGI (NCI/ADR-RES ovarian): > 100 µM | TGI (NCI-H23 lung): > 100 µM | TGI (MDA-N): > 100 µM | TGI (SK-MEL-2 melanoma): > 100 µM

C[C@]12CC[C@H]3[C@@H](CCC4=CC(=O)CC[C@@]43C)[C@@H]1CC[C@@H]2OC(=O)c1cccc2c(=O)c3ccccc3[nH]c12
TGI (HOP-62 NSCLC): > 100 µM | TGI (OVCAR-3 ovarian): > 100 µM | TGI (A549 NSCLC): > 100 µM | TGI (HT29 colon): > 100 µM | TGI (LOX IMVI melanoma): 62.1 µM | TGI (UACC-257 melanoma): > 100 µM | TGI (A498 renal): > 100 µM | TGI (SF-268 CNS): > 100 µM | TGI (SNB-19 CNS): > 100 µM | TGI (RPMI-8226 leukemia): 87.7 µM | TGI (NCI/ADR-RES ovarian): > 100 µM | TGI (OVCAR-4 ovarian): > 100 µM | TGI (NCI-H23 lung): > 100 µM | TGI (MDA-N): > 100 µM | TGI (SK-MEL-2 melanoma): > 100 µM

N#C/C=C\c1ccc(-c2cc(C(F)(F)F)cc(C(F)(F)F)c2)o1
TGI (HOP-62 NSCLC): 47.3 µM | TGI (OVCAR-3 ovarian): > 100 µM | TGI (A549 NSCLC): > 100 µM | TGI (HT29 colon): > 100 µM | TGI (LOX IMVI melanoma): > 100 µM | TGI (UACC-257 melanoma): > 100 µM | TGI (A498 renal): 61.3 µM | TGI (SF-268 CNS): 69.7 µM | TGI (SNB-19 CNS): > 100 µM | TGI (RPMI-8226 leukemia): > 100 µM | TGI (NCI/ADR-RES ovarian): > 100 µM | TGI (OVCAR-4 ovarian): > 100 µM | TGI (NCI-H23 lung): 30.1 µM | TGI (MDA-N): 71.6 µM | TGI (SK-MEL-2 melanoma): 41 µM

COc1cc2c3c4c1OCc1c5c(cc(c1-4)CC3[N+](C)(C)CC2)OCO5 (stereo not given)
TGI (HOP-62 NSCLC): > 100 µM | TGI (OVCAR-3 ovarian): > 100 µM | TGI (A549 NSCLC): > 100 µM | TGI (HT29 colon): > 100 µM | TGI (LOX IMVI melanoma): > 100 µM | TGI (UACC-257 melanoma): > 100 µM | TGI (A498 renal): > 100 µM | TGI (SF-268 CNS): 16.9 µM | TGI (SNB-19 CNS): 54 µM | TGI (RPMI-8226 leukemia): > 100 µM | TGI (NCI/ADR-RES ovarian): > 100 µM | TGI (OVCAR-4 ovarian): > 100 µM | TGI (NCI-H23 lung): > 100 µM | TGI (MDA-N): > 100 µM | TGI (SK-MEL-2 melanoma): > 100 µM
